# Measurements taken from US8153795B2, “Substituted 1-oxa-3,8-diazaspiro[4.5]-decan-2-one-compounds and the use thereof for producing drugs” (Gruenenthal GmbH, priority 2005, dated 2012).
# Target: T1, human μ opioid receptor (Homo sapiens, UniProt P35372)
# T1 construct: purchased NEN, Zaventem, Belgium RB-HOM; host or cells: CHO-K1 cells (recombinant expression, membrane preparation)
# Test: affinity for the human μ opioid receptor, displacement of [3H]-naloxone, CHO-K1 membrane preparation
# Conditions: percentage inhibition of specific binding of [3H]-naloxone
# Protocol: Receptor affinity for the human p opioid receptor is determined in a homogeneous batch in microtitre plates. To this end, dilution series of the particular substituted 1-oxa-3,8-diazaspiro[4.5]-decan-2-one compounds to be tested were incubated at room temperature for 90 minutes in a total volume of 250 μl with a receptor membrane preparation (15-40 μg of protein per 250 μl of incubation batch) of CHO-K1 cells, which express the human p opioid receptor (RB-HOM receptor membrane preparation from NEN, Zaventem, Belgium) in the presence of 1 nmol/l of the radioactive ligand [^3H]-naloxone (NET719, from NEN, Zaventem, Belgium) and of 1 mg of WGA-SPA beads (wheat germ agglutinin SPA beads from Amersham/Pharmacia, Freiburg, Germany). The incubation buffer used is 50 mmol/l tris-HCl supplemented with 0.05 wt. % of sodium azide and 0.06 wt. % of bovine serum albumin. Nonspecific binding is determined by additionally adding 25 μmol/l of naloxone. Once the ninety minute incubation time had elapsed, the microtitre plates were centrifuged off for 20 minutes at 1000 g and the radioactivity measured in a β counter (Microbeta-Trilux, from PerkinElmer Wallac, Freiburg, Germany). The percentage displacement of the radioactive ligand from its binding to the human p opioid receptor is determined at a concentration of the substances to be tested of 1 μmol/l and stated as percentage inhibition of specific binding.
# T1 sequence (P35372 whole entry): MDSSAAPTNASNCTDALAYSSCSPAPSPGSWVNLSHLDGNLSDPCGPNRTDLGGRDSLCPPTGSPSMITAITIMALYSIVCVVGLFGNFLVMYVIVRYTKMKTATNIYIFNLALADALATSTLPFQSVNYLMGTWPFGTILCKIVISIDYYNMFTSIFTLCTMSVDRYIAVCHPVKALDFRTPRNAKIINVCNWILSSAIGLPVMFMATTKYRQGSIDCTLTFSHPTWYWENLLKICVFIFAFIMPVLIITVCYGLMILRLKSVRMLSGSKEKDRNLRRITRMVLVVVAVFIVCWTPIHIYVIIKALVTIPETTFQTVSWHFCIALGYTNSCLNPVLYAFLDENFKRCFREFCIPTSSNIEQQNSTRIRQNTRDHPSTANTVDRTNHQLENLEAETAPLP
row,SMILES,inhibition at 1 µM
1,"O=C1OC2(CCN(C(=O)c3ccc(Cl)cc3)CC2)CN1Cc1cccc(Br)c1 [Example 100, 3-(3-bromobenzyl)-8-(4-chlorobenzoyl)-1-oxa-3,8-diazaspiro[4.5]decan-2-one]",64%
2,"CCOc1ccc(C(=O)N2CCC3(CC2)CN(Cc2ccc(C)cc2)C(=O)O3)cc1 [Example 92, 8-(4-ethoxybenzoyl)-3-(4-methylbenzyl)-1-oxa-3,8-diazaspiro[4.5]decan-2-one]",70%
3,"CC(CC(=O)O)CC(=O)N1CCC2(CC1)CN(Cc1ccc(F)c(F)c1)C(=O)O2 (stereo not drawn) [Example 69, 5-[3-(3,4-difluorobenzyl)-2-oxo-1-oxa-3,8-diazaspiro[4.5]dec-8-yl]-3-methyl-5-oxopentanoic acid]",50%
4,"O=C(O)COCC(=O)N1CCC2(CC1)CN(Cc1ccc(C(F)(F)F)cc1)C(=O)O2 [Example 70, {2-oxo-2-[2-oxo-3-(4-trifluoromethylbenzyl)-1-oxa-3,8-diazaspiro[4.5]dec-8-yl]ethoxy}acetic acid]",42%
5,"CC(CC(=O)O)CC(=O)N1CCC2(CC1)CN(Cc1ccccc1F)C(=O)O2 (stereo not drawn) [Example 67, 5-[3-(2-fluorobenzyl)-2-oxo-1-oxa-3,8-diazaspiro[4.5]dec-8-yl]-3-methyl-5-oxopentanoic acid]",41%
6,"O=C1OC2(CCN(S(=O)(=O)Cc3cccc(Cl)c3)CC2)CN1Cc1ccccc1-c1ccccc1 [Example 149, 3-biphenyl-2-ylmethyl-8-(3-chlorobenzylsulfonyl)-1-oxa-3,8-diazaspiro[4.5]decan-2-one]",61%
7,"O=C1OC2(CCN(C(=O)c3ccc(Br)cc3)CC2)CN1Cc1ccc(F)cc1 [Example 97, 8-(4-bromobenzoyl)-3-(4-fluorobenzyl)-1-oxa-3,8-diazaspiro[4.5]decan-2-one]",67%
8,"N#Cc1ccc(CN2CC3(CCN(C(=O)C45CC6CC(CC(C6)C4)C5)CC3)OC2=O)cc1 [Example 98, 4-[8-(adamantane-1-carbonyl)-2-oxo-1-oxa-3,8-diazaspiro[4.5]dec-3-ylmethyl]benzonitrile]",75%
9,"CC(=O)Nc1ccc(C(=O)N2CCC3(CC2)CN(Cc2ccc(F)c(F)c2)C(=O)O3)cc1 [Example 96, N-{4-[3-(3,4-difluorobenzyl)-2-oxo-1-oxa-3,8-diazaspiro[4.5]decane-8-carbonyl]phenyl}acetamide]",78%
10,"N#Cc1ccccc1CN1CC2(CCN(C(=O)c3ccc(F)cc3F)CC2)OC1=O [Example 94, 2-[8-(2,4-difluorobenzoyl)-2-oxo-1-oxa-3,8-diazaspiro[4.5]dec-3-ylmethyl]benzonitrile]",62%
11,"O=C(O)COCC(=O)N1CCC2(CC1)CN(Cc1ccc(F)c(F)c1)C(=O)O2 [Example 64, {2-[3-(3,4-difluorobenzyl)-2-oxo-1-oxa-3,8-diazaspiro[4.5]dec-8-yl]-2-oxoethoxy}acetic acid]",48%
12,"Cc1cc(C)cc(CN2CC3(CCN(C(=O)c4cccc(N(C)C)c4)CC3)OC2=O)c1 [Example 95, 8-(3-dimethylaminobenzoyl)-3-(3,5-dimethylbenzyl)-1-oxa-3,8-diazaspiro[4.5]decan-2-one]",75%
13,"Cc1ccc(CN2CC3(CCN(C(=O)CC(C)(C)CC(=O)O)CC3)OC2=O)cc1 [Example 68, 3,3-dimethyl-5-[3-(4-methylbenzyl)-2-oxo-1-oxa-3,8-diazaspiro[4.5]dec-8-yl]-5-oxopentanoic acid]",46%
14,"COC(=O)CC(=O)N1CCC2(CC1)CN(Cc1ccc(C#N)cc1)C(=O)O2 [Example 93, 3-[3-(4-cyanobenzyl)-2-oxo-1-oxa-3,8-diazaspiro[4.5]dec-8-yl]-3-oxopropionic acid methyl ester]",65%
15,"CC(C)(CC(=O)O)C(=O)N1CCC2(CC1)CN(Cc1ccc(F)c(F)c1)C(=O)O2 [Example 65, 4-[3-(3,4-difluorobenzyl)-2-oxo-1-oxa-3,8-diazaspiro[4.5]dec-8-yl]-3,3-dimethyl-4-oxobutanoic acid]",56%

# Target: T2, NA transporter (Rattus norvegicus, UniProt Q63380)
# T2 construct: from tissue; host or cells: rat brain synaptosomes (P2 fraction) from hypothalamus
# T2 sequence (Q63380 1-617): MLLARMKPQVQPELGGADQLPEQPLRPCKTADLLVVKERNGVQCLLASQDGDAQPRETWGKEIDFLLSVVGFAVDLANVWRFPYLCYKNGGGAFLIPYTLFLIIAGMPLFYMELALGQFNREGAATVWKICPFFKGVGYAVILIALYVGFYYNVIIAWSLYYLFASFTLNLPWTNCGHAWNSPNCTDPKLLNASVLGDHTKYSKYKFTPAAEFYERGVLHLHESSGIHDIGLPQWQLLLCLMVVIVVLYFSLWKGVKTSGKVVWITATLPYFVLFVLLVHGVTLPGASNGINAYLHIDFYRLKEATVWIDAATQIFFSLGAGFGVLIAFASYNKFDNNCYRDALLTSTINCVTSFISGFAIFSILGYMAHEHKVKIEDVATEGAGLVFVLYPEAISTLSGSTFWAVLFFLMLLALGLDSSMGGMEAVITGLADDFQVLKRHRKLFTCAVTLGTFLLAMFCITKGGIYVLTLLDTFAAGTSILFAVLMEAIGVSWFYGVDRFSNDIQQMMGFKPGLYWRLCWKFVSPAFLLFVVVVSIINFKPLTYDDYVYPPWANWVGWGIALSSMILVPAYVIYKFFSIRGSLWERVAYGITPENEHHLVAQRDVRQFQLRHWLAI
# Test: noradrenalin uptake inhibition in rat brain synaptosomes (hypothalamus), [3H]-NA
# Assay type: biochemical
# Conditions: not given
# Text: a) Method for Determining Noradrenalin and 5-HT Uptake Inhibition:
# Synaptosomes from rat brain regions are freshly isolated for in vitro studies, as described in the publication “The isolation of nerve endings from brain” by E. G. Gray and V. P. Whittaker, J. Anatomy 96, pages 79-88, 1962. The corresponding literature description is hereby introduced as a reference and is deemed to be part of the disclosure.
# The tissue (hypothalamus for the determination of noradrenalin uptake inhibition and medulla and pons for the determination of 5-HT uptake inhibition) is homogenised in ice-cooled 0.32 M sucrose (100 mg of tissue/1 mL) in a glass homogeniser with Teflon pestle using five complete up and down strokes at 840 revolutions/minute.
# The homogenate is centrifuged at 4° C. for 10 minutes at 1000 g. After subsequent centrifugation at 17000 g for 55 minutes, the synaptosomes (P2 fraction) are obtained, which are resuspended in 0.32 M […] (0.5 mL/100 mg of original weight).
# The particular uptake is measured in a 96-well microtitre plate. The volume is 250 μl and the incubation proceeds at room temperature (approx. 20-25° C.) under an O2 atmosphere.
# The incubation time is 7.5 minutes for [^3H]-NA and 5 minutes for [^3H]-5-HT. The 96 samples are then filtered through a Unifilter GF/B® microtitre plate (Packard) and washed with 200 mL of incubated buffer using a “Brabdel MPXRI-96T Cell-Harvester”. The Unifilter GF/B plate is dried for 1 hour at 55° C. The plate is then sealed with a Back Seal® (Packard) and 35 μl of scintillation fluid are added per well (Ultima Gold®, Packard). After sealing with a top Seal® (Packard) and establishing an equilibrium (around 5 hours), radioactivity is determined in a “Trilux 1450 Microbeta” (Wallac).
# The quantity of protein used in the above determination corresponds to the values known from the literature, as for example described in “Protein measurement with the folin phenol reagent”, Lowry et al., J. Biol. Chem., 193, 265-275, 1951.
# A detailed description of the method may additionally be found in the literature, for example in M. Ch. Frink, H.-H. Hennies, W. Engelberger, M. Haurand and B. Wilffert (1996) Arzneim.-Forsch./Drug Res. 46 (III), 11, 1029-1036.
row,SMILES,inhibition at 10 µM
1,"CCOc1ccc(C(=O)N2CCC3(CC2)CN(Cc2ccc(C)cc2)C(=O)O3)cc1 [Example 92, 8-(4-ethoxybenzoyl)-3-(4-methylbenzyl)-1-oxa-3,8-diazaspiro[4.5]decan-2-one]",73%

# Target: T3, 5-HT transporter (Rattus norvegicus, UniProt P31652)
# T3 construct: from tissue; host or cells: rat brain synaptosomes (P2 fraction) from medulla and pons
# T3 sequence (P31652 whole entry): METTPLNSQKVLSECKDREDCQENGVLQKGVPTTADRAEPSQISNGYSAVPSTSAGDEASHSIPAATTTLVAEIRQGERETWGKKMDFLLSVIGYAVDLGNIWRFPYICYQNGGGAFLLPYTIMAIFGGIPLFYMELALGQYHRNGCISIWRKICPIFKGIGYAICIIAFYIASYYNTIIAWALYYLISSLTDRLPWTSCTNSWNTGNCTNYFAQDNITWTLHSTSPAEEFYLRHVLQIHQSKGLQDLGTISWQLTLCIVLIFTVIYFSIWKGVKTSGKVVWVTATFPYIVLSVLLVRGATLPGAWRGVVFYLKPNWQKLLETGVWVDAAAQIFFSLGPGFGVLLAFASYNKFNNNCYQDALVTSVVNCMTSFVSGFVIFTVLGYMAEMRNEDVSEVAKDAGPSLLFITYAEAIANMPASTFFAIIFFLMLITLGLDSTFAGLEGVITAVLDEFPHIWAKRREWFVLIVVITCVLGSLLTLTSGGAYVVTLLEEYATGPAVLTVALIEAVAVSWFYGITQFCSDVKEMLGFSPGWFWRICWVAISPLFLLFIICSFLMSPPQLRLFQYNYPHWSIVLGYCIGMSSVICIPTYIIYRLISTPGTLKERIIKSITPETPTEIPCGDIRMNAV
# Test: 5-HT uptake inhibition in rat brain synaptosomes (medulla and pons), [3H]-5-HT
# Assay type: biochemical
# Conditions: not given
# Outline: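 Freshly isolated P2 synaptosomes taken from rat hypothalamus (NA) or medulla/pons (5-HT) were incubated at room temperature under O2 with [3H]-NA for 7.5 min or [3H]-5-HT for 5 min. Uptake was measured as filter-retained radioactivity by scintillation counting.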
row,SMILES,inhibition at 10 µM
1,"CCOc1ccc(C(=O)N2CCC3(CC2)CN(Cc2ccc(C)cc2)C(=O)O3)cc1 [Example 92, 8-(4-ethoxybenzoyl)-3-(4-methylbenzyl)-1-oxa-3,8-diazaspiro[4.5]decan-2-one]",67%
2,"CC(C)(CC(=O)O)C(=O)N1CCC2(CC1)CN(Cc1ccc(F)c(F)c1)C(=O)O2 [Example 65, 4-[3-(3,4-difluorobenzyl)-2-oxo-1-oxa-3,8-diazaspiro[4.5]dec-8-yl]-3,3-dimethyl-4-oxobutanoic acid]",55%
